Where a name gives a salt, the structure may show the parent alone. Read-outs that look alike come from different tables or passages of the source.
Tests used:
A.viscosus = experiment: Anti-microbial activity (MIC and MLC); format: cell-based; conditions: complex compared with uncomplexed chlorhexidine digluconate
Excerpt: (§1) A comparison of the anti-microbial activity of chlorhexidine digluconate and beta-cyclodextrin complexed chlorhexidine digluconates were compared against four microorganisms, C.albicans, S. anaguis, S.mutans and A.viscosus.

C.albicans = experiment: Anti-microbial activity (MIC and MLC); format: cell-based; conditions: complex compared with uncomplexed chlorhexidine digluconate
Excerpt: as §1

S. anaguis = experiment: Anti-microbial activity (MIC and MLC); format: cell-based; conditions: complex compared with uncomplexed chlorhexidine digluconate
Excerpt: as §1

S.mutans = experiment: Anti-microbial activity (MIC and MLC); format: cell-based; conditions: complex compared with uncomplexed chlorhexidine digluconate
Excerpt: as §1

[1] = Description: Free chlorhexidine has a water solubility of about 8 mg. per 100 ml. of water at room temperature.
[2] = background statement, temperature not given; dihydrochloride; cited from earlier work

Structure (SMILES)	minimum inhibitory concentration (MIC) (A.viscosus)	minimum lethal concentration (MLC) (A.viscosus)	minimum inhibitory concentration (MIC) (C.albicans)	minimum lethal concentration (MLC) (C.albicans)	minimum inhibitory concentration (MIC) (S. anaguis)	minimum lethal concentration (MLC) (S. anaguis)	minimum inhibitory concentration (MIC) (S.mutans)	minimum lethal concentration (MLC) (S.mutans)	water solubility ([1]; water)	water solubility [2]	water solubility [1]
N=C(NCCCCCCNC(=N)NC(=N)Nc1ccc(Cl)cc1)NC(=N)Nc1ccc(Cl)cc1 [chlorhexidine digluconate]	similar	similar	similar	similar	similar	similar	similar	similar			
[H]/N=C(\N/C(=N/[H])NCCCCCCNC(=N)NC(=N)Nc1ccc(Cl)cc1)Nc1ccc(Cl)cc1 [chlorhexidine dihydrochloride]									60 mg. per 100 ml. of water	~60 mg per 100 ml of water	
[H]/N=C(\N/C(=N/[H])NCCCCCCNC(=N)NC(=N)Nc1ccc(Cl)cc1)Nc1ccc(Cl)cc1 [chlorhexidine, 1,6-di(p-chlorophenylbiguanides) hexane]									8 mg. per 100 ml. of water		about 8 mg. per 100 ml. of water
